From patent US20130252930A1 (BIOMARIN PHARMACEUTICAL INC., priority 2010, published 2013)

Legend:
[1] = target: T1, CYP17 (human testicular microsome) (Homo sapiens, UniProt P05093); test: CYP17 enzymatic assay (% inhibition at 10 nM), version 1 (Biological Example 5); assay type: biochemical; details: 10 nM compound, DHEA by ELISA, read-out: Biological Example No. 5: CYP17 percent inhibition at 10 nM (version 1)
T1 construct: using microsomal fraction from human testis (Celsis Cat #S00110) as the enzyme source; tissue Celsis S00110; host or cells: human testis microsomal fraction
T1 sequence (P05093 1-508): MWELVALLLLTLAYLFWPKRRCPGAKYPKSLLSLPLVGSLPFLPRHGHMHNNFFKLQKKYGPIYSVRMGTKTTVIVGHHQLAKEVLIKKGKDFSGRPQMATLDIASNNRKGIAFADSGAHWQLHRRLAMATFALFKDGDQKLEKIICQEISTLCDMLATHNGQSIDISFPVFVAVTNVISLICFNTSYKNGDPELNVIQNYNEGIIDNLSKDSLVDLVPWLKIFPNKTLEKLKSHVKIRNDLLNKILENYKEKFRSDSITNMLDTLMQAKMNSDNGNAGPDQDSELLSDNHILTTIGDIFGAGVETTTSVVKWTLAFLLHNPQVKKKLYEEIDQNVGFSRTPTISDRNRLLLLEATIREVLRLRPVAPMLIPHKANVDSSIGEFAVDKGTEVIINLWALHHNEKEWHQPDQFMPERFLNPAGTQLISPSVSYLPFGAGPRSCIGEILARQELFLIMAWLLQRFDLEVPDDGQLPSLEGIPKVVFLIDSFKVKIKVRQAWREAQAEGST

[2] = Rat liver microsome stability assay (Biological Example 8a); details: liver microsomes, pH 7.4
[3] = target: T1, CYP17 (human testicular microsome); test: CYP17 enzymatic assay (IC50) (Biological Example 4); assay type: biochemical; details: human testicular microsome, DHEA by ELISA; read-out: Biological Example No. 4: CYP17 enzymatic assay IC50
[4] = Human liver microsome stability assay (Biological Example 8b); details: liver microsomes, pH 7.4

Row | Structure (SMILES) | inhibition at 0.01 µM [1] [%] | half-life at 1 μM [2] [min] | IC50 [3] [nM] | half-life at 1 μM [4] [min]
1 | CCc1cncc(C2=CC[C@H]3[C@@H]4CCN5CCCCC[C@]5(C)[C@H]4CC[C@]23C)c1 [Compound 48, (11aR,13aS)-1-(5-ethylpyridin-3-yl)-11a,13a-dimethyl-3a,3b,4,5,7,8,9,10,11,11a,11b,12,13,13a-tetradecahydro-3H-azepino[2,1-a]cyclopenta[f]isoquinoline] | 1 to 50 | 1 to 10 |  | 
2 | C[C@]12CCNC(=O)C=C1CC[C@@H]1[C@@H]2CC[C@]2(C)C(n3ncnn3)=CC[C@@H]12 [Compound 63] | > 80 | 1 to 10 |  | 
3 | C[C@]12CC(=O)C[C@@H]1CC[C@@H]1[C@@H]2CC[C@]2(C)C(n3ccnc3)=CC[C@@H]12 [Compound 108, (3aS,3bS,5aS,8aS,8bR,10aS)-6-(1H-imidazol-1-yl)-3a,5a-dimethyl-3,3a,3b,4,5,5a,8,8a,8b,9,10,10a-dodecahydrodicyclopenta[a,f]naphthalen-2(1H)-one] | > 80 | 1 to 10 | < 11 | > 50
4 | Cc1cncc(C2=CC[C@H]3[C@@H]4CC[C@H]5COC(=O)CC[C@]5(C)[C@H]4CC[C@]23C)c1 [Compound 119, (5aR,5bS,7aS,10aS,10bR,12aR)-5a,7a-dimethyl-8-(5-methylpyridin-3-yl)-5,5a,5b,6,7,7a,10,10a,10b,11,12,12a-dodecahydro-1H-cyclopenta[5,6]naphtho[2,1-c]oxepin-3(4H)-one] | 1 to 50 | 1 to 10 |  | 
5 | C[C@]12CCOCC[C@@H]1CC[C@@H]1[C@@H]2CC[C@]2(C)C(c3cccnc3)=CC[C@@H]12 [Compound 120, 3-((5aS,5bS,7aS,10aS,10bR,12aS)-5a,7a-dimethyl-2,4,5,5a,5b,6,7,7a,10,10a,10b,11,12,12a-tetradecahydro-1H-cyclopenta[5,6]naphtho[1,2-d]oxepin-8-yl)pyridine] | > 80 | 1 to 10 | < 11 | 
6 | C[C@]12CCCOC[C@H]1CC[C@@H]1[C@@H]2CC[C@]2(C)C(c3cccnc3)=CC[C@@H]12 [Compound 121, 3-((5aR,5bS,7aS,10aS,10bR,12aS)-5a,7a-dimethyl-3,4,5,5a,5b,6,7,7a,10,10a,10b,11,12,12a-tetradecahydro-1H-cyclopenta[5,6]naphtho[2,1-c]oxepin-8-yl)pyridine] | > 80 | 1 to 10 | < 11 | 
7 | COc1cncc(C2=CC[C@H]3[C@@H]4CC[C@H]5CCOCC[C@]5(C)[C@H]4CC[C@]23C)c1 [Compound 122, 3-((5aS,5bS,7aS,10aS,10bR,12aS)-5a,7a-dimethyl-2,4,5,5a,5b,6,7,7a,10,10a,10b,11,12,12a-tetradecahydro-1H-cyclopenta[5,6]naphtho[1,2-d]oxepin-8-yl)-5-methoxypyridine] | 50 to 80 | 1 to 10 | < 11 | 
8 | COc1cncc(C2=CC[C@H]3[C@@H]4CC[C@H]5COCCC[C@]5(C)[C@H]4CC[C@]23C)c1 [Compound 123, 3-((5aR,5bS,7aS,10aS,10bR,12aR)-5a,7a-dimethyl-3,4,5,5a,5b,6,7,7a,10,10a,10b,11,12,12a-tetradecahydro-1H-cyclopenta[5,6]naphtho[2,1-c]oxepin-8-yl)-5-methoxypyridine] | 50 to 80 | 1 to 10 | < 11 | 
9 | CCOc1cncc(C2=CC[C@H]3[C@@H]4CC[C@H]5COCCC[C@]5(C)[C@H]4CC[C@]23C)c1 [Compound 125, 3-((5aR,5bS,7aS,10aS,10bR,12aR)-5a,7a-dimethyl-3,4,5,5a,5b,6,7,7a,10,10a,10b,11,12,12a-tetradecahydro-1H-cyclopenta[5,6]naphtho[2,1-c]oxepin-8-yl)-5-ethoxypyridine] | 50 to 80 | 1 to 10 | < 11 | 
10 | Cc1cncc(C2=CC[C@H]3[C@@H]4CC[C@H]5COCCC[C@]5(C)[C@H]4CC[C@]23C)c1 [Compound 127, 3-((5aR,5bS,7aS,10aS,10bR,12aR)-5a,7a-dimethyl-3,4,5,5a,5b,6,7,7a,10,10a,10b,11,12,12a-tetradecahydro-1H-cyclopenta[5,6]naphtho[2,1-c]oxepin-8-yl)-5-methylpyridine] | 50 to 80 | 1 to 10 | < 11 | 
11 | Cc1cn(C2=CC[C@H]3[C@@H]4CCC5=CC(=O)NCC[C@]5(C)[C@H]4CC[C@]23C)cn1 [Compound 154] | 50 to 80 | 10 to 60 | < 11 | 

Second part, the compound after the results:

Row | inhibition at 0.01 µM [1] [%] | half-life at 1 μM [2] [min] | IC50 [3] [nM] | half-life at 1 μM [4] [min] | Structure (SMILES)
12 | 50 to 80 | 1 to 10 | < 11 |  | Cc1cncc(C2=CC[C@H]3[C@@H]4CCN5C(=O)CCCC[C@]5(C)[C@H]4CC[C@]23C)c1 [Compound 39, (11aR,13aS)-11a,13a-dimethyl-1-(5-methylpyridin-3-yl)-3b,4,5,8,9,10,11,11a,11b,12,13,13a-dodecahydro-3H-azepino[2,1-a]cyclopenta[f]isoquinolin-7(3aH)-one]
13 | > 80 | 1 to 10 | < 11 |  | COc1cncc(C2=CC[C@H]3[C@@H]4CCN5C(=O)CCCC[C@]5(C)[C@H]4CC[C@]23C)c1 [Compound 40, (11aR,13aS)-1-(5-methoxypyridin-3-yl)-11a,13a-dimethyl-3b,4,5,8,9,10,11,11a,11b,12,13,13a-dodecahydro-3H-azepino[2,1-a]cyclopenta[f]isoquinolin-7(3aH)-one]
14 | > 80 | 1 to 10 | < 11 |  | CCc1cncc(C2=CC[C@H]3[C@@H]4CCN5C(=O)CCCC[C@]5(C)[C@H]4CC[C@]23C)c1 [Compound 41, (11aR,13aS)-1-(5-ethylpyridin-3-yl)-11a,13a-dimethyl-3b,4,5,8,9,10,11,11a,11b,12,13,13a-dodecahydro-3H-azepino[2,1-a]cyclopenta[f]isoquinolin-7(3aH)-one]
15 | 50 to 80 | 10 to 60 | < 11 |  | C[C@]12CCCCC[C@@H]1CC[C@@H]1[C@@H]2CC[C@]2(C)C(n3ccnc3)=CC[C@@H]12 [Compound 97, 1-((3aS,3bR,5aR,10aS,10bS,12aS)-10a,12a-dimethyl-3,3a,3b,4,5,5a,6,7,8,9,10,10a,10b,11,12,12a-hexadecahydrocyclohepta[a]cyclopenta[f]naphthalen-1-yl)-1H-imidazole]
16 | 50 to 80 | 1 to 10 | < 11 |  | CN1C(=O)COC[C@@]2(C)C1CC[C@@H]1[C@@H]2CC[C@]2(C)C(c3cccnc3)=CC[C@@H]12 (stereo partly drawn) [Compound 98, (5aR,5bS,7aS,10aS,10bS)-1,5a,7a-trimethyl-8-(pyridin-3-yl)-5,5a,5b,6,7,7a,10,10a,10b,11,12,12a-dodecahydro-1H-cyclopenta[5,6]naphtho[2,1-e][1,4]oxazepin-2(3H)-one]
